Tests used:
MMP-2 [1] = molecular target: T1, MMP-2 (Homo sapiens, UniProt P08253); assay: K(obs) of individual phage substrates (set of 1369); type: biochemical; settings: MMP2
T1 sequence (P08253 110-660): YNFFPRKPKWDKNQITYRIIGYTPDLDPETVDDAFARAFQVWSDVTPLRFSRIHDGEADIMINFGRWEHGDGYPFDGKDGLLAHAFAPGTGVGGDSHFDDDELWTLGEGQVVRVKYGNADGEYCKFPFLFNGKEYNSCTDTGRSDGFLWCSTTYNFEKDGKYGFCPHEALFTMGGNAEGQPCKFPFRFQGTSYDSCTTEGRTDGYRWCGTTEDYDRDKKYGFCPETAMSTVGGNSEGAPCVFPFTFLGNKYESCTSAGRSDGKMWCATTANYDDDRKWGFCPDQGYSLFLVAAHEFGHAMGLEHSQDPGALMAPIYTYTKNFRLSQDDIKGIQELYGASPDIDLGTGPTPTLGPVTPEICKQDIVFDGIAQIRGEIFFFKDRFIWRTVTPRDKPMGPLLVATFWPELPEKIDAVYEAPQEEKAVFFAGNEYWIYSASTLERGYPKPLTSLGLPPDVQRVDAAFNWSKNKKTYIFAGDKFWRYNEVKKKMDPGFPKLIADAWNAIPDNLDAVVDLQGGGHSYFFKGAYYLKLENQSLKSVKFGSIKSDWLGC

MMP-2 [2] = assay: Substrate phage display with NGS: relative probability (RP) of P3-P1' tetramer clusters; type: biochemical, human; settings: MMP2;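 note: ratio of tetramer probability after protease selection to that in naive phage library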
MMP-9 = MMP-9 (Homo sapiens, UniProt P14780); assay: K(obs) of individual phage substrates (set of 1369); type: biochemical; settings: MMP9
[3] = individual phage substrates, set of 1369 peptides, cleavage position marked by hyphen in sequence
[4] = RP of the P3-P1' tetramer contained in the substrate (substrate phage display with NGS)
[5] = individual phage substrates, set of 1369 peptides, hyphen in sequence marks cleavage position
[6] = individual phage substrate of the set of 1369 peptides, cleavage position marked by '-'
[7] = RP of the P3-P1' tetramer contained in the substrate
[8] = individual phage substrate of the set of 1369 peptides, dash in the sequence marks the cleavage position

MMP-9, sequence (P14780 94-707): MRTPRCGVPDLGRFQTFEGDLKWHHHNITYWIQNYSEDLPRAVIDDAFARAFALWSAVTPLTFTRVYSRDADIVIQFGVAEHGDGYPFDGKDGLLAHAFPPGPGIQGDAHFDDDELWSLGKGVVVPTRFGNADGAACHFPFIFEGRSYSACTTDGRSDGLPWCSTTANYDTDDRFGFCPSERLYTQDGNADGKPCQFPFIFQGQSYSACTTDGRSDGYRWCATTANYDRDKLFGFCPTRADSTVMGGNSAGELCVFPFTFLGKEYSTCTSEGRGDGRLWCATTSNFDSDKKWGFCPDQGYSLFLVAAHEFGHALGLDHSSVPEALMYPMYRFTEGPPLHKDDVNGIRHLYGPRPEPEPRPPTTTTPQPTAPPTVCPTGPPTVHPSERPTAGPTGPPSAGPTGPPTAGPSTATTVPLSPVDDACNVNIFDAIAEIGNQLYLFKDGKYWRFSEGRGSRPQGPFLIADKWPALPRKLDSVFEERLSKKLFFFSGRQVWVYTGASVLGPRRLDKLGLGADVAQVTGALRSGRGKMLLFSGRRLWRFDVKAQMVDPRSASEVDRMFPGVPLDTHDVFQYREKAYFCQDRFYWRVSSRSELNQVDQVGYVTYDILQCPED

| Substance | Kobs (MMP-2 [1]; [3]) [M⁻¹ s⁻¹] | Kobs (MMP-9; [5]) [M⁻¹ s⁻¹] | Kobs (MMP-2 [1]; [6]) [M⁻¹ s⁻¹] | Kobs (MMP-9; [8]) [M⁻¹ s⁻¹] | relative probability (RP) (MMP-2 [2]; [4]) | relative probability (RP) (MMP-2 [2]; [7]) |
| --- | --- | --- | --- | --- | --- | --- |
| SGPSM-LTATA | 9740.44 | 7386.83 |  |  | 33.0235 |  |
| SGPTN-LRTTA |  |  | 12792.1 | 12792.1 |  | 31.0288 |
| SGPVH-LLNTA |  |  | 3344.37 | 2280.5 |  | 32.2352 |
| SGPYP-LWKTA |  |  | 2218.08 | 3079.62 |  | 30.8058 |
| SGPYT-LVMTA | 517.582 | 8321.48 |  |  | 16.827 |  |
| SGRRN-LMNTA | 912.511 | 484.315 |  |  | 6.1579 |  |
| SGSHG-LRSTA |  |  | 1763.55 | 1154.21 |  | 0.2009 |
| SGSLA-LQSTA | 27.918 | 619.843 |  |  | 6.019 |  |
| SGSRA-LTASG |  |  | 2097.28 | 951.362 |  | 12.4506 |
| SGVLG-LIGTA | 12792.1 | 12792.1 |  |  | 24.4128 |  |
| SGVRA-IIATA |  |  | 12792.1 | 12792.1 |  | 26.2338 |
| SGVRF-LKGTA | 5269.78 | 12792.1 |  |  | 15.0438 |  |
| SGVRF-LMNTA |  |  | 1418.96 | 9740.44 |  | 15.0438 |
| SGVRH-VRATA |  |  | 3850.82 | 12792.1 |  | 9.5401 |
| SGVRW-YSNTA |  |  | 874.197 | 5667.28 |  | 17.3102 |
| SGVWN-LIMTA |  |  | 619.843 | 6688.74 |  | 14.4124 |
| SGVYS-LIKTA | 27.918 | 836.403 |  |  | 16.838 |  |
| SGWAP-LLRTA | 142.481 | 142.481 |  |  | 23.9342 |  |
| SGWSN-LMRTA | 0 | 0 |  |  | 17.9326 |  |
| SGYAN-MRRTA | 2097.28 | 762.325 |  |  | 22.6837 |  |
| SGYRS-LTLTA | 292.668 | 27.918 |  |  | 1.506 |  |
| SIAFA-LTASG | 12792.1 | 12792.1 |  |  | 17.8812 |  |
| SIHLA-LTASG | 1561.44 | 171.876 |  |  | 11.3603 |  |
| SLNRA-LTASG |  |  | 12792.1 | 4470.66 |  | 16.7485 |
| SNLNS-TASGA |  |  | 4205.91 | 4470.66 |  | 0.4784 |
| SQVRF-LTASG |  |  | 8321.48 | 6688.74 |  | 15.0438 |
| SRAYS-LTASG |  |  | 7815.03 | 8941.32 |  | 18.7071 |
| SRYLP-MTASG | 0 | 0 |  |  | 0.4306 |  |
| SSVWH-ITASG |  |  | 323.705 | 836.403 |  | 1.931 |

Further lines, with some results ahead:

| Kobs (MMP-2 [1]; [3]) [M⁻¹ s⁻¹] | Kobs (MMP-9; [5]) [M⁻¹ s⁻¹] | Kobs (MMP-2 [1]; [6]) [M⁻¹ s⁻¹] | Kobs (MMP-9; [8]) [M⁻¹ s⁻¹] | Substance | relative probability (RP) (MMP-2 [2]; [4]) | relative probability (RP) (MMP-2 [2]; [7]) |
| --- | --- | --- | --- | --- | --- | --- |
| 4205.91 | 7815.03 |  |  | SGPRW-MKGTA | 32.3694 |  |
| 7386.83 | 6688.74 |  |  | SGPSG-MRVTA | 32.7604 |  |
|  |  | 12792.1 | 12792.1 | SGPSS-LFATA |  | 35.4913 |
| 9740.44 | 10866.7 |  |  | SGPSW-LYTTA | 35.705 |  |
|  |  | 10866.7 | 12792.1 | SGPTA-LRATA |  | 32.8941 |
| 12792.1 | 12792.1 |  |  | SGPVA-LYKTA | 34.2983 |  |
| 12792.1 | 12792.1 |  |  | SGPVM-LRGTA | 25.0294 |  |
|  |  | 6131.32 | 12792.1 | SGPVN-LISTA |  | 34.508 |
|  |  | 2157.02 | 3344.37 | SGQRG-IYATA |  | 7.484 |
| 0 | 0 |  |  | SGSMR-LVLTA | 0 |  |
|  |  | 0 | 0 | SGTLN-LYNTA |  | 2.764 |
| 3438.54 | 5461.43 |  |  | SGVFW-MRGTA | 10.3215 |  |
|  |  | 484.315 | 1418.96 | SGVMG-IRITA |  | 12.4242 |
|  |  | 201.585 | 231.616 | SGVNH-LMTTA |  | 12.8499 |
|  |  | 1763.55 | 8321.48 | SGVRH-LINTA |  | 25.4239 |
| 3637.04 | 8941.32 |  |  | SGVRY-LYGTA | 18.3724 |  |
|  |  | 1373.05 | 0 | SGVSF-LQQTA |  | 5.918 |
| 484.315 | 2761.81 |  |  | SGVWG-IYVTA | 3.01 |  |
|  |  | 9740.44 | 12792.1 | SGVYW-LRSTA |  | 16.4375 |
| 1112.44 | 171.876 |  |  | SGWSG-MMATA | 18.3143 |  |

| Kobs (MMP-2 [1]; [3]) [M⁻¹ s⁻¹] | Kobs (MMP-9; [5]) [M⁻¹ s⁻¹] | Kobs (MMP-2 [1]; [6]) [M⁻¹ s⁻¹] | Kobs (MMP-9; [8]) [M⁻¹ s⁻¹] | Substance | relative probability (RP) (MMP-2 [2]; [4]) | relative probability (RP) (MMP-2 [2]; [7]) |
| --- | --- | --- | --- | --- | --- | --- |
| 5667.28 | 0 |  |  | SGYAS-MVATA | 24.1553 |  |
| 386.839 | 0 |  |  | SGYMS-LIATA | 0.07249 |  |
| 2280.5 | 2476.66 |  |  | SGYRS-LYSTA | 1.506 |  |
| 874.197 | 12792.1 |  |  | SGYYG-LRATA | 0.142 |  |
| 7386.83 | 4335.13 |  |  | SIVRM-LTASG | 15.9125 |  |
|  |  | 2409.72 | 0 | SKMAH-LTASG |  | 29.5006 |
|  |  | 5889.62 | 3741.87 | SKPNF-LTASG |  | 15.743 |
| 142.481 | 0 |  |  | SLFLH-MTASG | 0.2069 |  |
| 6396.07 | 10866.7 |  |  | SLPRP-LTASG | 34.3303 |  |
| 8321.48 | 2097.28 |  |  | SLPTS-LTASG | 28.926 |  |
| 3438.54 | 4613.14 |  |  | SLVLN-MTASG | 19.025 |  |
|  |  | 12792.1 | 12792.1 | SLVRF-LTASG |  | 15.0438 |
| 1154.21 | 0 |  |  | SMGSH-LTASG | 4.2785 |  |
| 10866.7 | 10866.7 |  |  | SPPLA-LTASG | 34.4921 |  |
| 1816.46 | 2097.28 |  |  | SQPHL-LTASG | 16.4802 |  |
|  |  | 2097.28 | 6688.74 | SQPIH-MTASG |  | 18.8886 |
| 12792.1 | 12792.1 |  |  | SQPTG-LTASG | 33.1098 |  |
|  |  | 2837.92 | 2157.02 | STIRM-LTASG |  | 12.7446 |
| 0 | 1763.55 |  |  | STVFH-MTASG | 5.168 |  |
|  |  | 418.952 | 0 | SVGLY-LTASG |  | 0.07615 |
